Experimental data reported in paper PMC8086144, “A novel peptide antagonist of the human growth hormone receptor” (The Journal of Biological Chemistry, 2021).

Target: T1, hPRLR (Homo sapiens, UniProt P16471)
T1 construct: T84 cells express high levels of hPRLR relative to hGHR (>1300:1); host or cells: T84 (human colon cancer), MALME-3M (human melanoma)
T1 sequence (P16471 25-622): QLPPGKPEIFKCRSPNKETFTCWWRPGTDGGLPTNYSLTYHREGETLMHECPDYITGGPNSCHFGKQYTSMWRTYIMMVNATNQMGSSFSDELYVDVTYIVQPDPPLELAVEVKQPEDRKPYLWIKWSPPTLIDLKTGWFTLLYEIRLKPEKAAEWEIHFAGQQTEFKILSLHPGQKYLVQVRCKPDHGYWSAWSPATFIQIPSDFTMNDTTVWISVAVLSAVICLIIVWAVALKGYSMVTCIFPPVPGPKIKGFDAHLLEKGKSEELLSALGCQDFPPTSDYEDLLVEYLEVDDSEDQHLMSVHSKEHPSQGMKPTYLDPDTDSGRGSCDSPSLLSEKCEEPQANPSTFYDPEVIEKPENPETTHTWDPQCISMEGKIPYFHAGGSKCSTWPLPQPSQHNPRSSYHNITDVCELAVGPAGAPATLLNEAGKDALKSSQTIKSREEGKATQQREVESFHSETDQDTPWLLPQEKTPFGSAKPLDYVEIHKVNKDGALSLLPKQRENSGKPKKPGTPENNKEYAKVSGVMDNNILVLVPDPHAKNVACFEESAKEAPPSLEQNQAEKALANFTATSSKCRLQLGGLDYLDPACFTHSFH
Test: hPRL-induced pSTAT5 in MALME-3M cells, Western blot
Format: cell-based
Details: 2.5 nM hPRL, 20 min, S1H concentration not given
Protocol: SK-MEL-28, MALME-3M, and T84 cells were grown and maintained in Eagle's Minimal Essential Medium. IM9 and L cells were grown in RPMI-1640 media and Dulbecco's modified Eagle's medium, respectively. All growth media was supplemented with 10% fetal bovine serum and 1× antibiotic-antimycotic […] solution. Cells were grown at 37 °C under a 5% CO2 atmosphere in a humidified incubator, and growth media was replaced every 48 h during incubation. No hGH was present in or added to the growth media unless specifically indicated. […]
Following treatment, the cells were harvested at the indicated time points, and the total protein was extracted. […] Sample protein concentration was quantified using a Bradford assay with bovine serum albumin as the protein standard. Absorbance at 595 nm was measured using a Spectramax 250 multimode plate reader (Molecular Devices) and processed using SoftmaxPro v4.7.1 software.
Cytosolic fractions from treated cells were thawed on ice, and 80 μg protein was loaded onto polyacrylamide gels for separation by SDS-PAGE. […] Chemiluminescence signals were detected using a GelDoc (BioRad) fluorescence imager. […]

inhibition of hPRL-induced pSTAT5: 49%
SMILES: CC[C@H](C)[C@H](NC(=O)[C@H](Cc1ccc(O)cc1)NC(C)=O)C(=O)N1CCC[C@H]1C(=O)N[C@@H](CCCCN)C(=O)N[C@@H](CCC(=O)O)C(=O)N[C@@H](CCC(N)=O)C(=O)N[C@@H](CCCCN)C(=O)N[C@@H](Cc1ccc(O)cc1)C(=O)N[C@@H](CO)C(=O)N[C@@H](Cc1ccccc1)C(=O)N[C@@H](CC(C)C)C(=O)N[C@@H](CCC(N)=O)C(=O)N[C@@H](CC(N)=O)C(=O)N1CCC[C@H]1C(=O)N[C@@H](CCC(N)=O)C(=O)N[C@H](C(N)=O)[C@@H](C)O [S1H]
